Experiments:
[1] = compound: T1, C[C@H]1CNCCN1c1nccc(-c2noc3c2CCC[C@@]32CCCc3sc(N)c(C#N)c32)n1 [BI-2493]; settings: 5 days
Method: (§1)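 PRISM pooled barcoded cancer cell line viability screen (Broad Institute) with BI-2493 at 8 doses in threefold dilutions from 0.00457 to 10 µmol/L, 5-day treatment; curves fitted per cell line. IC50 is undefined (placeholder) for resistant lines. AUC is capped at 1, and sensitivity is reported as 1 − AUC.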

[2] = compound: T1, BI-2493; assay: 1 - AUC of viability dose-response curve (sensitivity) (fraction); higher = more sensitive; settings: 5 days
Method: as §1

HCC78_LUNG
IC50 of cell viability [1]: 7.51 µM
1 - AUC of viability dose-response curve [2]: 0.164

TFK1_BILIARY_TRACT
IC50 of cell viability [1]: 2.89 µM
1 - AUC of viability dose-response curve [2]: 0.173

SKGT2_STOMACH
IC50 of cell viability [1]: 9.72 µM
1 - AUC of viability dose-response curve [2]: 0.00814

HTMMT_ENDOMETRIUM
IC50 of cell viability [1]: 5.79 µM
1 - AUC of viability dose-response curve [2]: 0.0985

A704_KIDNEY
IC50 of cell viability [1]: 9.08 µM
1 - AUC of viability dose-response curve [2]: 0.0519

HPBALL_HAEMATOPOIETIC_AND_LYMPHOID_TISSUE
IC50 of cell viability [1]: 4.23 µM
1 - AUC of viability dose-response curve [2]: 0.0862

SUPB15_HAEMATOPOIETIC_AND_LYMPHOID_TISSUE
IC50 of cell viability [1]: 3.13 µM
1 - AUC of viability dose-response curve [2]: 0.149

SKNDZ_AUTONOMIC_GANGLIA
IC50 of cell viability [1]: 9.28 µM
1 - AUC of viability dose-response curve [2]: 0.012

NCIH2030_LUNG
IC50 of cell viability [1]: 3.34 µM
1 - AUC of viability dose-response curve [2]: 0.206

U87MG_CENTRAL_NERVOUS_SYSTEM
IC50 of cell viability [1]: > 10 µM
1 - AUC of viability dose-response curve [2]: 0.111

BCPAP_THYROID
IC50 of cell viability [1]: 6.5 µM
1 - AUC of viability dose-response curve [2]: 0.0703

LU99_LUNG
IC50 of cell viability [1]: 8.77 µM
1 - AUC of viability dose-response curve [2]: 0.0228

BC3C_URINARY_TRACT
IC50 of cell viability [1]: 5.1 µM
1 - AUC of viability dose-response curve [2]: 0.193

SW579_THYROID
IC50 of cell viability [1]: 3.16 µM
1 - AUC of viability dose-response curve [2]: 0.133

HOTHC_THYROID
IC50 of cell viability [1]: 9.68 µM
1 - AUC of viability dose-response curve [2]: 0.00917

SKLU1_LUNG
IC50 of cell viability [1]: 1 µM
1 - AUC of viability dose-response curve [2]: 0.329

KPNYN_AUTONOMIC_GANGLIA
IC50 of cell viability [1]: > 10 µM
1 - AUC of viability dose-response curve [2]: 0.144

HDMB03_CENTRAL_NERVOUS_SYSTEM
IC50 of cell viability [1]: 4.5 µM
1 - AUC of viability dose-response curve [2]: 0.129

LOXIMVI_SKIN
IC50 of cell viability [1]: 8.63 µM
1 - AUC of viability dose-response curve [2]: 0.0241

HL60_HAEMATOPOIETIC_AND_LYMPHOID_TISSUE
IC50 of cell viability [1]: > 10 µM
1 - AUC of viability dose-response curve [2]: 0.089

KLE_ENDOMETRIUM
IC50 of cell viability [1]: 4.68 µM
1 - AUC of viability dose-response curve [2]: 0.0854

HCC4006_LUNG
IC50 of cell viability [1]: > 10 µM
1 - AUC of viability dose-response curve [2]: 0.233

LS180_LARGE_INTESTINE
IC50 of cell viability [1]: 1.08 µM
1 - AUC of viability dose-response curve [2]: 0.244

COV318_OVARY
IC50 of cell viability [1]: > 10 µM
1 - AUC of viability dose-response curve [2]: 0.0643

KOSC2CL343_UPPER_AERODIGESTIVE_TRACT
IC50 of cell viability [1]: 5.69 µM
1 - AUC of viability dose-response curve [2]: 0.0719

SNU398_LIVER
IC50 of cell viability [1]: 3.55 µM
1 - AUC of viability dose-response curve [2]: 0.176

SUM149PT_BREAST
IC50 of cell viability [1]: 3.94 µM
1 - AUC of viability dose-response curve [2]: 0.168

MM127_SKIN
IC50 of cell viability [1]: 7.34 µM
1 - AUC of viability dose-response curve [2]: 0.0501

HCC1395_BREAST
IC50 of cell viability [1]: 5.13 µM
1 - AUC of viability dose-response curve [2]: 0.139

PANC0203_PANCREAS
IC50 of cell viability [1]: 1.16 µM
1 - AUC of viability dose-response curve [2]: 0.327

TT1TKB_LARGE_INTESTINE
IC50 of cell viability [1]: 1.08 µM
1 - AUC of viability dose-response curve [2]: 0.312

TTC442_SOFT_TISSUE
IC50 of cell viability [1]: 5.84 µM
1 - AUC of viability dose-response curve [2]: 0.0621

PSN1_PANCREAS
IC50 of cell viability [1]: 9.23 µM
1 - AUC of viability dose-response curve [2]: 0.137

NUGC3_STOMACH
IC50 of cell viability [1]: 2.68 µM
1 - AUC of viability dose-response curve [2]: 0.236

SNU308_BILIARY_TRACT
IC50 of cell viability [1]: 8.63 µM
1 - AUC of viability dose-response curve [2]: 0.0812

G361_SKIN
IC50 of cell viability [1]: 4.01 µM
1 - AUC of viability dose-response curve [2]: 0.117

NCIH2172_LUNG
IC50 of cell viability [1]: 8.7 µM
1 - AUC of viability dose-response curve [2]: 0.0555

BHY_UPPER_AERODIGESTIVE_TRACT
IC50 of cell viability [1]: 5.93 µM
1 - AUC of viability dose-response curve [2]: 0.0642

— the supplement of paper PMC11962398
